According to PubChem BioAssay AID248 (DTP/NCI, 2004):
Where “and” joins values, the source holds several entries; their conditions need not be identical. Identical values can stand only once. Toxic doses and inconclusive results are not listed. Cut-off read from the data, not from the text of the source: active = T/C of 150% or more; inactive = T/C below 125%.

Test system: L1210 leukemia ip in BDF1 mice, survival T/C
Assay: NCI In Vivo Anticancer Drug Screen. Data for tumor model L1210 Leukemia (intraperitoneal) in B6D2F1 (BDF1) mice
Conditions: endpoint: mean survival time, higher = longer survival
How it was run: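 Survival endpoint. Drug-treated group vs vehicle group, expressed as T divided by C. Tumor passaged by transplantation.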

[1] = dose: 100.0 mg/kg/injection, schedule: Q01DX001 (ip), vehicle: Klucel (hydroxypropylcellulose) (HPC)
[2] = dose: 100.0 mg/kg/injection, schedule: Q04DX003 (ip), vehicle: Klucel (hydroxypropylcellulose) (HPC)
[3] = dose: 200.0 mg/kg/injection, schedule: Q01DX001 (ip), vehicle: Klucel (hydroxypropylcellulose) (HPC)
[4] = dose: 200.0 mg/kg/injection, schedule: Q04DX003 (ip), vehicle: Klucel (hydroxypropylcellulose) (HPC)
[5] = dose: 400.0 mg/kg/injection, schedule: Q01DX001 (ip), vehicle: Klucel (hydroxypropylcellulose) (HPC)
[6] = dose: 400.0 mg/kg/injection, schedule: Q04DX003 (ip), vehicle: Klucel (hydroxypropylcellulose) (HPC)
[7] = dose: 100.0 mg/kg/injection, schedule: Q01DX009 (ip), vehicle: Klucel (hydroxypropylcellulose) (HPC)
[8] = dose: 200.0 mg/kg/injection, schedule: Q01DX009 (ip), vehicle: Klucel (hydroxypropylcellulose) (HPC)

Measured: T/C

O=C1NN=C(c2ccccc2)CC1c1ccccc1 (stereo not given)
inactive: [1] 100 % of control | [2] 101 % of control | [3] 97 % of control | [4] 96 % of control | [5] 100 % of control | [6] 93 % of control

CCCCCCn1c(O)c(C=N)c(=O)[nH]c1=O
inactive: [7] 100 % of control | [2] 93 % of control | [8] 99 % of control | [4] 100 % of control | dose: 400.0 mg/kg/injection, schedule: Q01DX009 (ip), vehicle: Klucel (hydroxypropylcellulose) (HPC) 97 % of control | [6] 94 % of control

COC(=O)c1cc(C)n(C)c(=O)c1CNS(=O)(=O)c1ccc(C)cc1
inactive: dose: 100.0 mg/kg/injection, schedule: Q01DX009 (ip), vehicle: saline with Tween-80 99 % of control | dose: 100.0 mg/kg/injection, schedule: Q04DX003 (ip), vehicle: saline with Tween-80 97 % of control | dose: 200.0 mg/kg/injection, schedule: Q01DX009 (ip), vehicle: saline with Tween-80 100 % of control | dose: 200.0 mg/kg/injection, schedule: Q04DX003 (ip), vehicle: saline with Tween-80 105 % of control | dose: 400.0 mg/kg/injection, schedule: Q01DX009 (ip), vehicle: saline with Tween-80 99 % of control | dose: 400.0 mg/kg/injection, schedule: Q04DX003 (ip), vehicle: saline with Tween-80 108 % of control

O=[N+]([O-])c1ccc2[nH]ccc2c1
inactive: dose: 100.0 mg/kg/injection, schedule: Q01DX001 (ip), vehicle: saline 98 % of control | dose: 200.0 mg/kg/injection, schedule: Q01DX001 (ip), vehicle: saline 104 % of control | dose: 400.0 mg/kg/injection, schedule: Q01DX001 (ip), vehicle: saline 102 % of control

CCCN(C)N=Nc1ccccc1C(=O)O
inactive: dose: 12.5 mg/kg/injection, schedule: Q01DX009 (ip), vehicle: Klucel (hydroxypropylcellulose) (HPC) 106 % of control and 113 % of control and 124 % of control | dose: 12.5 mg/kg/injection, schedule: Q04DX003 (ip), vehicle: Klucel (hydroxypropylcellulose) (HPC) 105 % of control | dose: 25.0 mg/kg/injection, schedule: Q01DX009 (ip), vehicle: Klucel (hydroxypropylcellulose) (HPC) 114 % of control and 116 % of control | dose: 25.0 mg/kg/injection, schedule: Q04DX003 (ip), vehicle: Klucel (hydroxypropylcellulose) (HPC) 118 % of control | dose: 50.0 mg/kg/injection, schedule: Q04DX003 (ip), vehicle: Klucel (hydroxypropylcellulose) (HPC) 105 % of control | dose: 75.0 mg/kg/injection, schedule: Q01DX009 (ip), vehicle: Klucel (hydroxypropylcellulose) (HPC) 87 % of control | [2] 113 % of control

CCOC(=O)c1nnc(CC)[nH]c1=O
inactive: [1] 106 % of control | [3] 111 % of control | [5] 90 % of control

N#C/C(=N\N=Nc1ccccc1)c1cccc2ccccc12
inactive: dose: 100.0 mg/kg/injection, schedule: Q01DX009 (ip), vehicle: gum acacia 94 % of control | dose: 200.0 mg/kg/injection, schedule: Q01DX009 (ip), vehicle: gum acacia 91 % of control

Cn1c(C(Cl)Cl)nc2ccccc2c1=O
inactive: dose: 50.0 mg/kg/injection, schedule: Q01DX001 (ip), vehicle: carboxymethylcellulose (CMC) 106 % of control | dose: 100.0 mg/kg/injection, schedule: Q01DX001 (ip), vehicle: carboxymethylcellulose (CMC) 106 % of control | dose: 200.0 mg/kg/injection, schedule: Q01DX001 (ip), vehicle: carboxymethylcellulose (CMC) 106 % of control | dose: 400.0 mg/kg/injection, schedule: Q01DX001 (ip), vehicle: carboxymethylcellulose (CMC) 97 % of control

COc1ccc(CNCCN2CC2)cc1
inactive: dose: 10.0 mg/kg/injection, schedule: Q01DX009 (ip), vehicle: Klucel (hydroxypropylcellulose) (HPC) 108 % of control | dose: 20.0 mg/kg/injection, schedule: Q01DX009 (ip), vehicle: Klucel (hydroxypropylcellulose) (HPC) 106 % of control | dose: 40.0 mg/kg/injection, schedule: Q01DX009 (ip), vehicle: Klucel (hydroxypropylcellulose) (HPC) 98 % of control

CCCOc1ccc(C=Nc2ccc(C)cc2)cc1
inactive: [7] 98 % of control | [2] 109 % of control | [8] 116 % of control | [4] 101 % of control | [6] 117 % of control
